What was measured:
Type in all cases: in vivo
[1] = test system: Italian ryegrass (Lolium multiflorum); experiment: Test A postemergence, visual plant response rating; settings: for Ryegrass, Italian plant response rating (0 to 100 scale): 500 g ai/ha, postemergence, 0 is no effect, 100 is complete control; for Ryegrass, Italian plant response rating: Postemergence, 125 g ai/ha, 0 to 100 scale (0 no effect, 100 complete control)
Description: (§1) Seeds of plant species selected from barnyardgrass (Echinochloa crus-galli), kochia (Kochia scoparia), ragweed (common ragweed, Ambrosia elatior), Italian ryegrass (Lolium multiflorum), foxtail, giant (giant foxtail, Setaria faberii), foxtail, green (green foxtail, Setaria viridis), and pigweed (Amaranthus retroflexus) were planted into a blend of loam soil and sand and treated preemergence with a directed soil spray using test chemicals formulated in a non-phytotoxic solvent mixture which included a surfactant.
(§2) At the same time, plants selected from these weed species and also wheat (Triticum aestivum), corn (Zea mays), blackgrass (Alopecurus myosuroides), and galium (catchweed bedstraw, Galium aparine) were planted in pots containing the same blend of loam soil and sand and treated with postemergence applications of test chemicals formulated in the same manner. Plants ranged in height from 2 to 10 cm and were in the one- to two-leaf stage for the postemergence treatment. Treated plants and untreated controls were maintained in a greenhouse for approximately 10 days, after which time all treated plants were compared to untreated controls and visually evaluated for injury. Plant response ratings, summarized in Table A, are based on a 0 to 100 scale where 0 is no effect and 100 is complete control. A dash (-) response means no test result.

[2] = test system: barnyardgrass (Echinochloa crus-galli); experiment: Test A postemergence, visual plant response rating; settings: for Barnyardgrass plant response rating (0 to 100 scale): 500 g ai/ha, postemergence, 0 is no effect, 100 is complete control; for Barnyardgrass plant response rating: Postemergence, 125 g ai/ha, 0 to 100 scale (0 no effect, 100 complete control)
Description: as §1, §2

[3] = test system: ragweed (common ragweed, Ambrosia elatior); experiment: Test A postemergence, visual plant response rating; settings: for Ragweed plant response rating (0 to 100 scale): 500 g ai/ha, postemergence, 0 is no effect, 100 is complete control; for Ragweed plant response rating: Postemergence, 125 g ai/ha, 0 to 100 scale (0 no effect, 100 complete control)
Description: as §1, §2

corn (Zea mays) = experiment: Test A postemergence, visual plant response rating; settings: for Corn plant response rating (0 to 100 scale): 500 g ai/ha, postemergence, 0 is no effect, 100 is complete control; for Corn plant response rating: Postemergence, 125 g ai/ha, 0 to 100 scale (0 no effect, 100 complete control)
Description: as §1, §2

kochia (Kochia scoparia) [4] = experiment: Test A postemergence, visual plant response rating; settings: for Kochia plant response rating (0 to 100 scale): 500 g ai/ha, postemergence, 0 is no effect, 100 is complete control; for Kochia plant response rating: Postemergence, 125 g ai/ha, 0 to 100 scale (0 no effect, 100 complete control)
Description: as §1, §2

[5] = test system: foxtail, giant (giant foxtail, Setaria faberii); experiment: Test A postemergence, visual plant response rating; settings: for Foxtail, Giant plant response rating (0 to 100 scale): 500 g ai/ha, postemergence, 0 is no effect, 100 is complete control; for Foxtail, Giant plant response rating: Postemergence, 125 g ai/ha, 0 to 100 scale (0 no effect, 100 complete control)
Description: as §1, §2

[6] = test system: pigweed (Amaranthus retroflexus); experiment: Test A postemergence, visual plant response rating; settings: for Pigweed plant response rating (0 to 100 scale): 500 g ai/ha, postemergence, 0 is no effect, 100 is complete control; for Pigweed plant response rating: Postemergence, 125 g ai/ha, 0 to 100 scale (0 no effect, 100 complete control)
Description: as §1, §2

[7] = test system: blackgrass (Alopecurus myosuroides); experiment: Test A postemergence, visual plant response rating; settings: for Blackgrass plant response rating (0 to 100 scale): 500 g ai/ha, postemergence, 0 is no effect, 100 is complete control; for Blackgrass plant response rating: Postemergence, 125 g ai/ha, 0 to 100 scale (0 no effect, 100 complete control)
Description: as §1, §2

[8] = test system: wheat (Triticum aestivum); experiment: Test A postemergence, visual plant response rating; settings: for Wheat plant response rating (0 to 100 scale): 500 g ai/ha, postemergence, 0 is no effect, 100 is complete control; for Wheat plant response rating: Postemergence, 125 g ai/ha, 0 to 100 scale (0 no effect, 100 complete control)
Description: as §1, §2

[9] = test system: galium (catchweed bedstraw, Galium aparine); experiment: Test A postemergence, visual plant response rating; settings: for Galium plant response rating (0 to 100 scale): 500 g ai/ha, postemergence, 0 is no effect, 100 is complete control; for Galium plant response rating: Postemergence, 125 g ai/ha, 0 to 100 scale (0 no effect, 100 complete control)
Description: as §1, §2

[10] = test system: barnyardgrass (Echinochloa crus-galli); experiment: Test B flooded paddy test, visual plant response rating; settings: 250 g ai/ha, Flood, applied to paddy water, 2-leaf stage, evaluated after 13 to 15 days
Method in brief: (§3)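 Flooded-pot treatment: water 3 cm over the soil, chemical delivered into that water, depth unchanged for the duration. Assessed by eye versus controls following 13–15 greenhouse days; plants were at 2 leaves when dosed.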

rice (Oryza sativa) = experiment: as above; settings: 250 g ai/ha, Flood, applied to paddy water, 2-leaf stage, evaluated after 13 to 15 days
Method in brief: as §3

[11] = test system: sedge, umbrella (small-flower umbrella sedge, Cyperus difformis); experiment: as above; settings: 250 g ai/ha, Flood, applied to paddy water, 2-leaf stage, evaluated after 13 to 15 days
Method in brief: as §3

[12] = test system: ducksalad (Heteranhera limosa); experiment: as above; settings: 250 g ai/ha, Flood, applied to paddy water, 2-leaf stage, evaluated after 13 to 15 days
Method in brief: as §3

[13] = test system: Italian ryegrass (Lolium multiflorum); experiment: Test A preemergence, visual plant response rating; settings: for Ryegrass, Italian plant response rating: 125 g ai/ha, preemergence, 0 to 100 scale, 0 no effect, 100 complete control; for Ryegrass, Italian plant response rating (0 to 100 scale): 500 g ai/ha Preemergence, approx. 10 days
Method in brief: (§4)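 Greenhouse evaluation, approx. 10 days post-spray. Soil: loam + sand. Postemergence stage: 1–2 leaves, height 2–10 cm. Vehicle: non-phytotoxic solvent blend with surfactant. Score: visual injury on a 0 (no effect) to 100 (complete control) scale.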

[14] = test system: barnyardgrass (Echinochloa crus-galli); experiment: Test A preemergence, visual plant response rating; settings: for Barnyardgrass plant response rating: 125 g ai/ha, preemergence, 0 to 100 scale, 0 no effect, 100 complete control; for Barnyardgrass plant response rating (0 to 100 scale): 500 g ai/ha Preemergence, approx. 10 days
Method in brief: as §4

[15] = test system: ragweed (common ragweed, Ambrosia elatior); experiment: Test A preemergence, visual plant response rating; settings: for Ragweed plant response rating: 125 g ai/ha, preemergence, 0 to 100 scale, 0 no effect, 100 complete control; for Ragweed plant response rating (0 to 100 scale): 500 g ai/ha Preemergence, approx. 10 days
Method in brief: as §4

kochia (Kochia scoparia) [16] = experiment: Test A preemergence, visual plant response rating; settings: for Kochia plant response rating: 125 g ai/ha, preemergence, 0 to 100 scale, 0 no effect, 100 complete control; for Kochia plant response rating (0 to 100 scale): 500 g ai/ha Preemergence, approx. 10 days
Method in brief: as §4

[17] = test system: foxtail, giant (giant foxtail, Setaria faberii); experiment: Test A preemergence, visual plant response rating; settings: for Foxtail, Giant plant response rating: 125 g ai/ha, preemergence, 0 to 100 scale, 0 no effect, 100 complete control; for Foxtail, Giant plant response rating (0 to 100 scale): 500 g ai/ha Preemergence, approx. 10 days
Method in brief: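 Greenhouse pot test in loam–sand soil mix: compound in a surfactant-containing non-phytotoxic solvent applied preemergence (directed soil spray) or postemergence (one- to two-leaf plants, 2–10 cm). Injury scored visually after ~10 days, 0–100.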

[18] = test system: pigweed (Amaranthus retroflexus); experiment: Test A preemergence, visual plant response rating; settings: for Pigweed plant response rating: 125 g ai/ha, preemergence, 0 to 100 scale, 0 no effect, 100 complete control; for Pigweed plant response rating (0 to 100 scale): 500 g ai/ha Preemergence, approx. 10 days
Method in brief: as §4

| Structure (SMILES) | Ryegrass, Italian plant response rating (0 to 100 scale) [1] | Ryegrass, Italian plant response rating [1] | Barnyardgrass plant response rating (0 to 100 scale) [2] | Barnyardgrass plant response rating [2] | Ragweed plant response rating (0 to 100 scale) [3] | Ragweed plant response rating [3] | Corn plant response rating (0 to 100 scale) (corn (Zea mays)) | Corn plant response rating (corn (Zea mays)) | Kochia plant response rating (0 to 100 scale) (kochia (Kochia scoparia) [4]) | Kochia plant response rating (kochia (Kochia scoparia) [4]) | Foxtail, Giant plant response rating (0 to 100 scale) [5] | Foxtail, Giant plant response rating [5] | Pigweed plant response rating (0 to 100 scale) [6] | Pigweed plant response rating [6] | Blackgrass plant response rating (0 to 100 scale) [7] | Blackgrass plant response rating [7] | Wheat plant response rating (0 to 100 scale) [8] | Wheat plant response rating [8] | Galium plant response rating (0 to 100 scale) [9] | Galium plant response rating [9] | further results |
| --- | --- | --- | --- | --- | --- | --- | --- | --- | --- | --- | --- | --- | --- | --- | --- | --- | --- | --- | --- | --- | --- |
| CCCO/N=C(/c1c(O)c(C)nn(C)c1=O)c1cccc2ccccc12 [Compound 81] | 20 | 30 | 70 | 40 | 90 | 80 | 20 | 20 | 60 | 40 | 80 | 60 | 90 | 60 | 80 | 70 | 0 | 0 | 90 | 80 | Plant response rating, Barnyardgrass (0 to 100 scale, 0 is no effect, 100 is complete control) [10]: 0; Plant response rating, Rice (0 to 100 scale, 0 is no effect, 100 is complete control) (rice (Oryza sativa)): 0; Plant response rating, Sedge, Umbrella (0 to 100 scale, 0 is no effect, 100 is complete control) [11]: 0; Plant response rating, Ducksalad (0 to 100 scale, 0 is no effect, 100 is complete control) [12]: 0; Ryegrass, Italian plant response rating [13]: 20; Ryegrass, Italian plant response rating (0 to 100 scale) [13]: 50; Barnyardgrass plant response rating [14]: 60; Barnyardgrass plant response rating (0 to 100 scale) [14]: 70; Ragweed plant response rating [15]: 90; Ragweed plant response rating (0 to 100 scale) [15]: 100; Kochia plant response rating (kochia (Kochia scoparia) [16]): 10; Kochia plant response rating (0 to 100 scale) (kochia (Kochia scoparia) [16]): 10; Foxtail, Giant plant response rating [17]: 60; Foxtail, Giant plant response rating (0 to 100 scale) [17]: 100; Pigweed plant response rating [18]: 20; Pigweed plant response rating (0 to 100 scale) [18]: 100 |
| CON=C(c1c(O)c(C)nn(C)c1=O)c1cccc2cc(F)ccc12 [Compound 119] | 90 | 80 | 80 | 70 | 90 | 90 | 40 | 10 | 70 | 70 | 80 | 70 | 90 | 80 | 90 | 80 | 0 | 0 | 100 | 80 | Plant response rating, Barnyardgrass (0 to 100 scale, 0 is no effect, 100 is complete control) [10]: 0; Plant response rating, Rice (0 to 100 scale, 0 is no effect, 100 is complete control) (rice (Oryza sativa)): 0; Plant response rating, Sedge, Umbrella (0 to 100 scale, 0 is no effect, 100 is complete control) [11]: 0; Plant response rating, Ducksalad (0 to 100 scale, 0 is no effect, 100 is complete control) [12]: 0; Ryegrass, Italian plant response rating [13]: 30; Ryegrass, Italian plant response rating (0 to 100 scale) [13]: 100; Barnyardgrass plant response rating [14]: 50; Barnyardgrass plant response rating (0 to 100 scale) [14]: 80; Ragweed plant response rating [15]: 90; Ragweed plant response rating (0 to 100 scale) [15]: 90; Kochia plant response rating (kochia (Kochia scoparia) [16]): 30; Kochia plant response rating (0 to 100 scale) (kochia (Kochia scoparia) [16]): 80; Foxtail, Giant plant response rating [17]: 80; Foxtail, Giant plant response rating (0 to 100 scale) [17]: 100; Pigweed plant response rating [18]: 80; Pigweed plant response rating (0 to 100 scale) [18]: 100 |
